# Where two headings read alike, the source gives them in different places.
# How the values were obtained:
# [1] = system: Klebsiella-Enterobacter (strain 4/71); assay: Example 10: in vitro M.I.C. of II, cephalosporins and 1:1 combinations; type: cell-based
# Protocol: (§1) Tryptose phosphate broth, containing the appropriate concentrations of the compounds or of the combination of them, was inoculated with 0.5×10^4 -5×10^4 organisms of the various microorganisms tested and incubated overnight at 37° C. Minimum inhibitory concentrations (M.I.C.) were taken as the concentrations of the compounds or of the combination at which no visible growth occurred.
# (§2) Using the same technique as described in Example 1 the in vitro activity of 6-[(hexahydro-1H-azepin-1-yl)methyleneamino]penicillanic acid (II), of various cephalosporins previously mentioned in this specification, and of 1:1 combinations of II with these cephalosporins was determined against a clinically isolated strain of Klebsiella-Enterobacter (strain 4/71)
# [2] = system: Proteus (Proteus Mirabilis I 190); assay: Example 11: in vitro M.I.C. of II, cephalosporins and 1:1 combinations; type: cell-based
# Protocol: as §1
# as §2, with “cephalosporins” for “cephalosporins previously mentioned in this specification,”, “Proteus (Proteus Mirabilis I 190).” for “Klebsiella-Enterobacter (strain 4/71)”
# [3] = system: Coliform; assay: Example 1: in vitro M.I.C., serial dilution test, coliforms; type: cell-based; settings: 37° C overnight
# Protocol: as §1
# [4] = system: Proteus mirabilis; assay: Example 1: in vitro M.I.C., serial dilution test, Proteus mirabilis; type: cell-based; settings: Proteus mirabilis strain 35895; 37° C overnight
# Protocol: as §1
# [5] = system: Proteus vulgaris; assay: Example 1: in vitro M.I.C., serial dilution test, Proteus vulgaris; type: cell-based; settings: 37° C overnight, read-out: M.I.C.
# Protocol: as §1
# [6] = system: Proteus; assay: Example 1: in vitro M.I.C., serial dilution test, Proteus; type: cell-based; settings: 37° C overnight, read-out: M.I.C.
# Protocol: as §1
# [7] = system: E.coli III; assay: Example 3: in vivo activity, mean curative dose in mice infected with E.coli III; parameters: species or system female NMRI white mice; settings: Escherichia coli, sc, 96 h, subcutaneous, read-out: CD50 (mean curative dose)
# Protocol: The number of deaths in the various groups were recorded after 96 hours and the mean curative doses (CD50) were calculated. (In the table, LD50 gives the dilution of an overnight culture of the organism causing a 50% death rate in animals receiving no therapy; the number of LD50 -doses records the severity of the infections given to the animals.)
# [8] = system: clinically isolated coliform; assay: Example 7: emergence of resistance, subculturing by serial twofold broth dilution; type: cell-based
# Protocol: Subculturing using a serial twofold broth dilution technique was performed with 6-(D-α-aminophenylacetamido)-penicillanic acid (I), 6-[(hexahydro-1H-azepin-1-yl)methyleneamino]penicillanic acid (II), and a 1:1 combination of I and II. The strain used was a clinically isolated coliform. As inocula were used bacteria from the tube with the highest concentration of compound still permitting visible growth to the naked eye after incubation at 37° C. overnight. The following increases in MIC values were noted.
# [9] = system: Coliform; assay: Example 4: in vitro M.I.C., serial dilution test, coliforms; type: cell-based
# Protocol: as §1
# [10] = system: Proteus; assay: Example 4: in vitro M.I.C., serial dilution test, Proteus; type: cell-based; settings: read-out: M.I.C.
# Protocol: as §1
# [11] = system: Klebsiella-Enterobacter; assay: Example 4: in vitro M.I.C., serial dilution test, Klebsiella-Enterobacter; type: cell-based; settings: read-out: M.I.C.
# Protocol: as §1
# [12] = system: clinically isolated coliform bacterium; assay: Example 5: in vitro M.I.C. of IV, various penicillins and 1:1 combinations; type: cell-based
# Protocol: as §1
# Using the same technique as described in Example 1 the in vitro activity of 6[(piperidyl-1)-methyleneamino]-penicillianic acid (IV), of various penicillins, and of 1:1 combinations of IV with these penicillins, was determined against a clinically isolated coliform bacterium.
# [13] = system: E.coli III; assay: Example 6: emergence of resistance, subculturing by serial twofold broth dilution; type: cell-based; settings: Escherichia coli
# Protocol: Subculturing using a serial twofold broth dilution technique was performed with 6-(D-α-amino-phenylacetamido)-penicillanic acid (I), 6-[(piperidyl-1)methyleneamino]penicillanic acid (IV) and a 1:1 combination of I+IV. As inocula were used bacteria from the tube with the highest concentration of compound still permitting visible growth to the naked eye after incubation at 37° C. overnight. The following increases in MIC-values were noted.
# [14] = Klebsiella-Enterobacter strain 4/71, read-out: M.I.C.
# [15] = Proteus Mirabilis I 190, read-out: M.I.C.
compound,measurement,setting,value
"CC(=O)OCC1=C(C(=O)O)N2C(=O)[C@@H](NC(=O)Cc3cccs3)[C@H]2SC1 [VI, cephalotin]",MIC,[1],50 mg/L
same,MIC,[2],3.12 mg/L
CC(=O)OCC1=C(C(=O)O)N2C(=O)C(NC(=O)Cc3cccc(Cl)c3)C2SC1 (stereo not shown) [EPC 820/1b],MIC,[1]; [14],> 100 mg/L
same,MIC,[2]; [15],50 mg/L
"CC1(C)S[C@@H]2[C@H](N=CN3CCCCCC3)C(=O)N2[C@H]1C(=O)O [II, 6-[(hexahydro-1H-azepin-1-yl)methyleneamino]penicillanic acid]",MIC,[3]; Coliform strain 3/70,12.5 mg/L
same,MIC,[3]; Coliform strain 17/70,0.78 mg/L
same,MIC,[4],0.78 mg/L
same,MIC,[5]; Proteus vulgaris A,0.19 mg/L
same,MIC,[5]; Proteus vulgaris B,1.56 mg/L
same,MIC,[6]; Proteus strain 12/70,3.12 mg/L
same,MIC,[6]; Proteus strain 13/70,3.12 mg/L
same,MIC,[6]; Proteus strain 20/70,> 100 mg/L
same,ED50,"[7]; LD50 1.5·10^-3, 6.6 LD50-doses given",2 mg/kg
same,ED50,"[7]; LD50 8.1·10^-4, 1.2·10^4 LD50-doses given",> 500 mg/kg
same,MIC,[8]; passage 0,0.39 mg/L
same,MIC,[8]; passage 1,6.25 mg/L
same,MIC,[8]; passage 2,25 mg/L
same,MIC,[8]; passage 3,25 mg/L
same,MIC,[8]; passage 4,25 mg/L
same,MIC,[8]; passage 5,25 mg/L
same,MIC,[8]; passage 7,25 mg/L
same,MIC,[8]; passage 8,25 mg/L
same,MIC,[1]; [14],> 100 mg/L
same,MIC,[2]; [15],> 100 mg/L
CC(=O)OCC1=C(C(=O)O)N2C(=O)[C@@H](NC(=O)CC#N)[C@H]2SC1 [Cephacetrile],MIC,[1]; [14],50 mg/L
same,MIC,[2]; [15],12.5 mg/L
"CC1(C)S[C@@H]2[C@H](N=CN3CCCCC3)C(=O)N2[C@H]1C(=O)O [IV, 6-[(piperidyl-1)-methyleneamino]penicillanic acid]",MIC,[9]; Coliform strain 7/70,1.56 mg/L
same,MIC,[9]; Coliform strain 16/70,1.56 mg/L
same,MIC,[9]; Coliform strain 17/70,1.56 mg/L
same,MIC,[10]; Proteus strain 4/70,25 mg/L
same,MIC,[10]; Proteus strain 6/70,3.12 mg/L
same,MIC,[10]; Proteus strain 7/70,50 mg/L
same,MIC,[10]; Proteus strain 9/70,100 mg/L
same,MIC,[10]; Proteus strain 10/70,25 mg/L
same,MIC,[11]; Klebsiella-Enterobacter strain 1/70,> 100 mg/L
same,MIC,[11]; Klebsiella-Enterobacter strain 2/70,12.5 mg/L
same,MIC,[11]; Klebsiella-Enterobacter strain 5/70,> 100 mg/L
same,MIC,[11]; Klebsiella-Enterobacter strain 7/70,> 100 mg/L
same,MIC,[11]; Klebsiella-Enterobacter strain 9/70,3.12 mg/L
same,MIC,[11]; Klebsiella-Enterobacter strain 10/70,> 100 mg/L
same,MIC,[11]; Klebsiella-Enterobacter strain 431,> 100 mg/L
same,MIC,[12],6.25 mg/L
same,MIC,[13]; passage 0,0.78 mg/L
same,MIC,[13]; passage 1,6.25 mg/L
same,MIC,[13]; passage 2,6.28 mg/L
same,MIC,[13]; passage 3,25 mg/L
same,MIC,[13]; passage 4,25 mg/L
same,MIC,[13]; passage 5,25 mg/L
same,MIC,[13]; passage 6,25 mg/L
CC(=O)OCC1=C(C(=O)O)N2C(=O)C(NC(=O)CSc3ccccc3)C2SC1 (stereo not shown) [EPC 825/1],MIC,[1]; [14],> 100 mg/L
same,MIC,[2]; [15],25 mg/L
CC(=O)OCC1=C(C(=O)O)N2C(=O)C(NC(=O)Cc3ccccc3)C2SC1 (stereo not shown) [EPC 807 2/b],MIC,[1]; [14],> 100 mg/L
same,MIC,[2]; [15],25 mg/L
O=C(Cc1cccs1)N[C@@H]1C(=O)N2C(C(=O)[O-])=C(C[n+]3ccccc3)CS[C@H]12 [Cephaloridine],MIC,[1]; [14],25 mg/L
same,MIC,[2]; [15],6.25 mg/L

# From US4221781A, “Synergistic penicillin-cephalosporin compositions and methods” (priority 1971, dated 1980)
